Laboratory results taken from patent US20250270202A1, “SUBSTITUTED 4-AMINOISOINDOLINE COMPOUND, PREPARATION METHOD THEREFOR, PHARMACEUTICAL COMPOSITION THEREOF, AND USE THEREOF” (SHANGHAI INSTITUTE OF MATERIA MEDICA, CHINESE ACADEMY OF …, priority 2022, published 2025).
Read-outs that look alike come from different tables or passages of the source.

How the values were obtained:
Mino cells = assay: Inhibition of cell proliferation of Mino cells (MTS, 3 days); format: cell-based
How it was run: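 Mino cells in RPMI-1640 with 15% FBS were seeded at 8000 cells/well and treated with 5-fold compound dilutions (final DMSO 0.2%) for 3 days at 37° C. Viability was measured by MTS as OD490−OD690 after 3-4 h. IC50 was fitted from inhibition relative to DMSO and blank, in three repeat experiments.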

[1] = Mouse pharmacokinetic experiment, oral gavage; format: in vivo; conditions: ICR mice, female, oral gavage 20 mg/kg, plasma
Method: Mouse Pharmacokinetic Experimental Scheme ICR mice, female, 18-22 g, randomly divided into groups with 4 mice per group. The test compounds were administered by oral gavage at a dose volume of 10 mL/kg. The oral solution was prepared using DMSO/PEG-400/water (5:30:65, v/v/v). Mice were fasted for 12 hours prior to the experiment with free access to water. After drug administration, they were allowed to eat uniformly at 2 hours post-dose. The test compounds (20 mg/kg) were orally administered to 4 mice. Blood samples (50 μL) were collected from the orbital vein at the following time points: 5 min, 15 min, 30 min, 1 h, 2 h, 4 h, 6 h, and 24 h. The blood was centrifuged at 12,000 rpm for 2 minutes to separate plasma, which was then stored at −20° C. for blood concentration measurement.

MV-4-11 cells = assay: Inhibition of MV-4-11 cell proliferation (MTS, 7 days); format: cell-based
How it was run: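 Measured at 2,000 cells per well in IMDM with 10% FBS, five-fold compound dilutions, 0.2% DMSO final, 7 days at 37° C, 5% CO2. MTS added for 3-4 hours; signal as OD490-OD690. IC50 from three repeated experiments, each in triplicate.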

MM.1S cells = assay: Effect of the compound on MM.1S cell proliferation (MTS, 7 days); format: cell-based
How it was run: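 MM.1S cells (20,000/well in RPMI 1640 with 10% FBS) were exposed to a 5-step compound dilution series (0.2% DMSO final) for 7 days at 37 °C, 5% CO2. MTS readout used OD490 minus OD690 after 3–4 h, and IC50 was fitted from three independent repeats.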

[2] = Homo sapiens, MINO, 72 h, 3 days, MTS, Table 2, read-out: Mino Cells Inhibition Activity IC50
[3] = Homo sapiens, MV4-11, 168 h, 7 days, MTS, Table 3, read-out: MV-4-11 Cells Inhibition Activity IC50
[4] = Homo sapiens, MM1.S, 168 h, 7 days, MTS, Table 1, read-out: MM.1S Cells Inhibition Activity IC50
[5] = 3 days, MTS, Table 2, read-out: Mino Cells Inhibition Activity IC50
[6] = 7 days, MTS, Table 3, read-out: MV-4-11 Cells Inhibition Activity IC50
[7] = 7 days, MTS, Table 1, read-out: MM.1S Cells Inhibition Activity IC50
[8] = Homo sapiens, MINO, Table 4, read-out: Inhibitory Activity of Compounds on Cell Proliferation Mino IC50
[9] = Homo sapiens, MV4-11, Table 4, values in nM, read-out: Inhibitory Activity of Compounds on Cell Proliferation MV-4-11 IC50
[10] = Homo sapiens, MM1.S, Table 4, read-out: Inhibitory Activity of Compounds on Cell Proliferation MM.1S IC50
[11] = Homo sapiens, MV4-11, Table 4, values in μM, read-out: Inhibitory Activity of Compounds on Cell Proliferation MV-4-11 IC50
[12] = Homo sapiens, MV4-11, positive compounds, read-out: IC50 in MV-4-11 acute leukemia cells

Row | SMILES | IC50 (MV-4-11 cells; [3]) [nM] | IC50 (MM.1S cells; [4]) [nM] | IC50 (MM.1S cells; [10]) [nM] | IC50 (Mino cells; [2]) [nM] | IC50 (Mino cells; [8]) [nM] | other results
1 | [2H]c1c([2H])c([2H])c(-c2ncc(CNc3cccc4c3C(=O)N(C3CCC(=O)NC3=O)C4=O)o2)c([2H])c1[2H] (stereo not shown) [Example 45] | < 1000 | 15 to 30 |  | < 60 |  | AUC(0-t) [1]: > 10000 ng·h/mL; Cmax [1]: > 2000 ng/mL
2 | O=C1CCC(N2C(=O)c3cccc(NCc4cnc(-c5ccccc5Cl)o4)c3C2=O)C(=O)N1 (stereo not shown) [Example 92, 4-(((2-(2-Chlorophenyl)oxazol-5-yl)methyl)amino)-2-(2,6-Dioxopiperidine-3-yl)isoindoline-1,3-dione] |  |  |  |  |  | IC50 (Mino cells; [5]): > 120 nM; IC50 (MV-4-11 cells; [6]): < 1000 nM; IC50 (MM.1S cells; [7]): < 15 nM
3 | O=C1CCC(N2C(=O)c3cccc(NCc4cnc(-c5ccc(F)cc5)o4)c3C2=O)C(=O)N1 (stereo not shown) [Example 93, 2-(2,6-Dioxopiperidine-3-yl)-4-(((2-(4-Fluorophenyl)oxazol-5-yl)methyl)amino)isoindoline-1,3-dione] |  |  |  |  |  | IC50 (Mino cells; [5]): < 60 nM; IC50 (MV-4-11 cells; [6]): < 1000 nM; IC50 (MM.1S cells; [7]): < 15 nM
4 | O=C1CCC(N2C(=O)c3cccc(NCc4ncc(-c5ccccc5F)o4)c3C2=O)C(=O)N1 (stereo not shown) [Example 95, 2-(2,6-Dioxopiperidine-3-yl)-4-(((5-(2-Fluorophenyl)oxazol-2-yl)methyl)amino)isoindoline-1,3-dione] | > 20000 | 30 to 150 |  | > 120 |  | 
5 | O=C1CCC(N2C(=O)c3cccc(NCc4cnc(-c5ccccc5OC5CC5)o4)c3C2=O)C(=O)N1 (stereo not shown) [Example 97, 4-(((2-(2-Cyclopropoxyphenyl)oxazol-5-yl)methyl)amino)-2-(2,6-Dioxopiperidine-3-yl)isoindoline-1,3-dione] | 1000 to 20000 | < 15 |  | > 120 |  | 
6 | O=C1CCC(N2C(=O)c3cccc(NCc4nnc(-c5ccccc5)o4)c3C2=O)C(=O)N1 (stereo not shown) [Example 98, 2-(2,6-Dioxopiperidine-3-yl)-4-(((5-Phenyl-1,3,4-oxadiazol-2-yl)methyl)amino)isoindoline-1,3-dione] | 1000 to 20000 | 15 to 30 |  | > 120 |  | 
7 | O=C1CCC(N2C(=O)c3cccc(NCc4nnc(-c5ccccc5)s4)c3C2=O)C(=O)N1 (stereo not shown) [Example 99, 2-(2,6-Dioxopiperidine-3-yl)-4-(((5-Phenyl-1,3,4-thiadiazol-2-yl)methyl)amino)isoindoline-1,3-dione] | 1000 to 20000 | 30 to 150 |  | > 120 |  | 
8 | O=C1CCC(N2C(=O)c3cccc(NCc4cnc(-c5ccc(OC6CC6)cc5)s4)c3C2=O)C(=O)N1 (stereo not shown) [Example 103, 4-(((2-(4-Cyclopropoxyphenyl)thiazol-5-yl)methyl)amino)-2-(2,6-Dioxopiperidine-3-yl)isoindoline-1,3-dione] | 1000 to 20000 | < 15 |  | > 120 |  | 
9 | COCCOc1ccc(-c2ncc(CNc3cccc4c3C(=O)N(C3CCC(=O)NC3=O)C4=O)s2)cc1 (stereo not shown) [Example 104] | < 1000 | 15 to 30 |  | > 120 |  | 
10 | O=C1CCC(N2C(=O)c3cccc(NCc4cnc([C@H]5CC[C@@H](Cc6ccc(F)cc6)CC5)o4)c3C2=O)C(=O)N1 (stereo partly drawn) [Example 105, 2-(2,6-Dioxopiperidine-3-yl)-4-(((2-((1S,4S)-4-(4-Fluorobenzyl)cyclohexyl)oxazol-5-yl)methyl)amino)isoindoline-1,3-dione] | 1000 to 20000 | > 150 |  | > 120 |  | 
11 | O=C1CCC(N2C(=O)c3cccc(NCc4cnc([C@H]5CC[C@H](Cc6ccc(F)cc6)CC5)o4)c3C2=O)C(=O)N1 (stereo partly drawn) [Example 106, 2-(2,6-Dioxopiperidine-3-yl)-4-(((2-((1R,4R)-4-(4-Fluorobenzyl)cyclohexyl)oxazol-5-yl)methyl)amino)isoindoline-1,3-dione] | < 1000 | 30 to 150 |  | > 120 |  | 
12 | CC(C)(C)C(=O)N1CCC(c2ncc(CNc3cccc4c3CN(C3CCC(=O)NC3=O)C4=O)o2)CC1 (stereo not shown) [Example Ctrl-1, 3-(1-oxo-4-(((2-(1-pivaloylpiperidin-4-yl)oxazol-5-yl)methyl)amino)isoindolin-2-yl)piperidine-2,6-dione, reference compound] |  |  | 420 |  | > 20000 | IC50 (MV-4-11 cells; [9]): 14400 nM
13 | O=C1CCC(N2Cc3c(NCc4cn(-c5ccc(Cl)cc5)nn4)cccc3C2=O)C(=O)N1 (stereo not shown) [Example Ctrl-4, reference compound] |  |  | > 15 |  | > 5000 | IC50 (MV-4-11 cells; [9]): > 20000 nM
14 | Nc1cccc2c1CN(C1CCC(=O)NC1=O)C2=O (stereo not shown) [Lenalidomide, reference compound] | > 20000 | 30 to 150 |  | > 120 |  | IC50 (MV-4-11 cells; [12]): > 20000 nM
15 | Nc1cccc2c1C(=O)N(C1CCC(=O)NC1=O)C2=O (stereo not shown) [Pomalidomide, reference compound] | > 20000 | 30 to 150 |  | > 120 |  | IC50 (MV-4-11 cells; [12]): > 20000 nM
16 | O=C1CCC(N2Cc3c(NCc4cnc(-c5ccc(OC(F)(F)F)cc5)o4)cccc3C2=O)C(=O)N1 (stereo not shown) [Prior Art Disclosed Compound-1, reference compound] |  |  | > 20 |  | > 4800 | IC50 (MV-4-11 cells; [9]): > 20000 nM
17 | O=C1CCC(N2Cc3c(CCc4cnc(-c5ccc(OC(F)(F)F)cc5)o4)cccc3C2=O)C(=O)N1 (stereo not shown) [Prior Art Disclosed Compound-2, reference compound] |  |  | 73 |  | 800 | IC50 (MV-4-11 cells; [9]): > 20000 nM
18 | O=C1CCC(N2C(=O)c3cccc(OCc4cn(-c5ccc(OC(F)(F)F)cc5)nn4)c3C2=O)C(=O)N1 (stereo not shown) [Prior Art Disclosed Compound-3, reference compound] |  |  | > 20000 |  | 680 | IC50 (MV-4-11 cells; [9]): > 20000 nM
19 | O=C1CCC(N2Cc3c(OCC4CCN(c5ccc(OC(F)(F)F)cc5)CC4)cccc3C2=O)C(=O)N1 (stereo not shown) [Prior Art Disclosed Compound-4, reference compound] |  |  | > 41 |  | 7500 | IC50 (MV-4-11 cells; [9]): > 10000 nM

Further lines, with some results ahead:

Row | IC50 (MV-4-11 cells; [3]) [nM] | IC50 (MM.1S cells; [4]) [nM] | IC50 (MM.1S cells; [10]) [nM] | SMILES | IC50 (Mino cells; [2]) [nM] | IC50 (Mino cells; [8]) [nM] | other results
20 | < 1000 | < 15 |  | O=C1CCC(N2C(=O)c3cccc(NCc4cnc(-c5ccccc5)o4)c3C2=O)C(=O)N1 (stereo not shown) [Example 22] | < 60 |  | AUC(0-t) [1]: > 10000 ng·h/mL; Cmax [1]: > 2000 ng/mL
21 | < 1000 | < 15 |  | O=C1CCC(N2C(=O)c3cccc(NCc4cnc(-c5ccc(C(F)(F)F)cc5)s4)c3C2=O)C(=O)N1 (stereo not shown) [Example 37] | < 60 |  | AUC(0-t) [1]: > 10000 ng·h/mL; Cmax [1]: > 2000 ng/mL
22 | < 1000 | < 15 |  | O=C1CCC(N2C(=O)c3cccc(NCc4cnc(-c5ccc(OC6CC6)cc5)o4)c3C2=O)C(=O)N1 (stereo not shown) [Example 51, 4-(((2-(4-Cyclopropoxyphenyl)oxazol-5-yl)methyl)amino)-2-(2,6-Dioxopiperidin-3-yl)isoindolin-1,3-dione] | < 60 |  | AUC(0-t) [1]: > 10000 ng·h/mL; Cmax [1]: > 2000 ng/mL
23 | < 1000 | < 15 |  | O=C1CCC(N2C(=O)c3cccc(NCc4cnc(-c5cccc(OC6CC6)c5)o4)c3C2=O)C(=O)N1 (stereo not shown) [Example 96, 4-(((2-(Cyclopropoxyphenyl)oxazol-5-yl)methyl)amino)-2-(2,6-Dioxopiperidine-3-yl)isoindoline-1,3-dione] | > 120 |  | 
24 | 1000 to 20000 | < 15 |  | O=C1CCC(N2C(=O)c3cccc(NCc4cnc(-c5cccc(OC6COC6)c5)o4)c3C2=O)C(=O)N1 (stereo not shown) [Example 100] | > 120 |  | 
25 |  |  | > 30 | O=CN(Cc1cnc(-c2ccc(Cl)cc2)o1)c1cccc2c1C(=O)N(C1CCC(=O)NC1=O)C2=O (stereo not shown) [Example Ctrl-2, N-((2-(4-chlorophenyl)oxazol-5-yl)methyl)-N-(2-(2,6-dioxopiperidin-3-yl)-1,3-dioxoisoindolin-4-yl) formamide, reference compound] |  | > 120 | IC50 (MV-4-11 cells; [11]): 1000 to 20000 nM
26 |  |  | > 30 | CN(Cc1cnc(-c2ccc(Cl)cc2)o1)c1cccc2c1C(=O)N(C1CCC(=O)NC1=O)C2=O (stereo not shown) [Example Ctrl-3, 4-(((2-(4-chlorophenyl)oxazol-5-yl)methyl)(methyl)amino)-2-(2,6-dioxopiperidin-3-yl)isoindoline-1,3-dione, reference compound] |  | > 120 | IC50 (MV-4-11 cells; [11]): 1000 to 20000 nM
